According to US12202805B2, “Process for preparing (5S)-{[2-(4-carboxyphenyl)ethyl] |2-(2-{|3-chloro-4'-(trifluoromethyl)biphenyl-4-yl]methoxy}phenyl)ethyl]aminol-5,6,7,8-tetrahydroquinoline-2-carboxylic acid and its crystalline forms for use as pharmaceutically active compound” (Bayer Aktiengesellschaft, priority 2021, dated 2025):

Tests used:
[1] = tested on: thromboxane A2 challenged PAH-minipig; assay: Haemodynamics in the anesthetized thromboxane challenged minipig, intratracheal dry powder (PAP, BP); format: in vivo, Göttingen Minipigs
Method: Healthy Göttingen Minipigs® Ellegaard (Ellegaard, Denmark) of both sexes and having a weight of 2-6 kg were used. The animals were sedated by i.m. administration of about 25 mg/kg ketamine and about 10 mg/kg azaperone. Anaesthesia was initiated by i.v. administration of about 2 mg/kg ketamine and about 0.3 mg/kg midazolam. Maintenance of anaesthesia was by i.v. administration of about 7.5-30 mg/kg/h ketamine and about 1-4 mg/kg/h midazolam (rate of infusion 1-4 ml/kg/h) and about 150 μg/kg/h pancuronium bromide (for example Pancuronium-Actavis). After intubation, the animals were ventilated by the ventilator at a constant respiratory volume (10-12 ml/kg, 35 breaths/min; Avea®, Viasys Healthcare, USA, or Engström Carestation, GE Healthcare, Freiburg, Germany) such that an end-tidal CO2 concentration of about 5% was achieved. Ventilation was performed with room air, enriched with about 40% oxygen (normoxia). For the measurement of the haemodynamic parameters such as pulmonary arterial pressure (PAP), blood pressure (BP) and heart rate (HR), catheters were inserted into the carotid artery to measure the blood pressure, and a Swan-Ganz® catheter was introduced in a flow-directed manner via the jugular vein into the pulmonary artery. The haemodynamic signals were recorded and evaluated by means of pressure transducers (Combitransducer, B. Braun, Melsungen, Germany)/amplifiers and Ponemah® as data acquisition software.
As reference pure Lactose vehicle was applied in the beginning of each experiment.

[2] = Filter experiments for deposited lung dose in the PAH minipig model and prediction of human dose; format: in vivo
Method: The anesthetized thromboxane A2 challenged PAH-minipig model (see experimental part E-1) is considered to be the most relevant and sensitive model for the prediction of the human minimal effective and effective doses (MED, ED). To determine effective LDs, experiments were repeated with the difference that absorbing filters were attached at the end of the tubes to determine the deposited lung dose. […] Assuming a minimal effective ND of 3 μg/kg (5% reduction in PAP) the minimal effective deposited LD is considered as 0.15 μg/kg.
The nominal doses of 3, 10, 30 and 100 μg/kg of the minipig model were multiplied by the filter deposition factor of 5% resulting in 0.15, 0.5, 1.5 and 5 μg/kg lung deposited doses in the minipig. These values were multiplied by 60 kg to achieve the lung dose in humans. Thus, the FPD reflecting the PAP reduction for a 60 kg human are calculated to be 9, 30, 90 and 300 μg.
Thus, via a direct up-scaling from minipig, the predictive MED (5% PAP reduction) for a human based on a 60 kg body weight is calculated to be 9 μg LDD, not considering protein binding within the respiratory tract. As a surrogate for unbound concentrations, which are the likely active concentrations in the lung, we considered respective differences in fractions unbound in plasma of minipig and human. […]

O=C(O)c1ccc(CCN(CCc2ccccc2OCc2ccc(-c3ccc(C(F)(F)F)cc3)cc2Cl)[C@H]2CCCc3nc(C(=O)O)ccc32)cc1 [example 2, (5S)—{[2-(4-Carboxyphenyl)ethyl][2-(2-{[3-chloro-4′-(trifluoromethyl)biphenyl-4-yl]methoxy}phenyl)-ethyl]amino}-5,6,7,8-tetrahydroquinoline-2-carboxylic acid as Monohydrate II]
systemic blood pressure ([1]; 375 μg/kg i.t., within the last hour of the observation interval): slightly affected
efficacy with regard to PAP reduction as well as systemic BP reduction ([1]; micronized hydrates, 1.5 mg/4 kg (=375 μg/kg) i.t.): comparable efficacy
BP, % changes vs. prevalues ([1]; time 80 min, 375 μg/kg i.t.): 100.0%
BP, % changes vs. prevalues ([1]; time 130 min, 375 μg/kg i.t.): 97.0%
BP, % changes vs. prevalues ([1]; time 140 min, 375 μg/kg i.t.): 97.0%
BP, % changes vs. prevalues ([1]; time 200 min, 375 μg/kg i.t.): 97.0%
ratio of fraction unbound minipig/human ([2]; plasma): 4.55

O=C(O)c1ccc(CCN(CCc2ccccc2OCc2ccc(-c3ccc(C(F)(F)F)cc3)cc2Cl)[C@H]2CCCc3nc(C(=O)O)ccc32)cc1 [comparative example 11, (5S)-5-{[2-(4-carboxyphenyl)ethyl][2-(2-{[3-chloro-4′-(trifluoromethyl)[biphenyl]-4-yl]methoxy}phenyl)ethyl]amino}-5,6,7,8-tetrahydroquinoline-2-carboxylic acid]
MED ([1]; dry powder i.t., lower doses not applicable): ≤ 7.5 µg/kg
minimal effective lung deposited dose for a human patient of 60 kg body weight ([2]; with or without effect of different protein binding): 9 to 41 µg
